Here are results for four compounds from article PMC11435217, “In Vitro Studies of Genistein Lipophilic Derivatives as Potential UV Radiation Protectors” (Pharmaceuticals, 2024).

Each structure is given as a SMILES string. Read-outs that look alike come from different tables or passages of the source.

Series [1] deals with Me45 (human malignant melanoma cell line). Kind of series: Determination of EC50 values, MTS assay, Me45. The series is classed as cell-based. Conditions: read-out: EC50 (±SE). How it is done:
(§1) NHDFs were purchased from Lonza Group Ltd.—Lonza Verviers (Verviers, Belgium), and the human malignant melanoma (Me45) cell line was obtained from the Maria Skłodowska-Curie Memorial Cancer Center and National Institute of Oncology Branch Gliwice, Poland. […] During the culturing periods, cells were passaged before confluency reached 80% in culture flasks and washed regularly with PBS.
(§2) The EC50 values of genistein and its derivatives for both cell lines were determined using the MTS assay (Cell Titer 96 AQueous One Solution Cell Proliferation Assay, Promega, Madison, WI, USA). Cells were seeded in 96-well plates (5 × 10^3 cells/well) and incubated for 24 h at 37 °C in 5% CO2. Subsequently, the cells were treated with twelve concentrations of each compound ranging from 1–100 µM for 48 h at 37 °C in 5% CO2. Afterwards, the medium, including the investigated compounds, was removed from all wells and replaced with PBS. In total, 20 µL of MTS was added to each well. Plates were then incubated for 2 h at 37 °C in 5% CO2. The absorbance was measured at λ = 490 nm using an Epoch microplate reader (BioTek, Winooski, VT, USA). EC50 values were calculated using Matlab software (Matlab R2022a, MathWorks, Natick, MA, USA).
A general note: Tetrazolium assays rely on reduction of a dye to a coloured formazan, in cell work by metabolically active cells.

The nature of series [2]: Lipophilicity (Log P). The class given is physicochemical. The text has this:
Table 2 Genistein and its derivatives investigated in the study. | column: Log P

Series [3] concerns NHDF (normal human dermal fibroblasts). Kind of series: Determination of EC50 values, MTS assay, NHDF. The series is classed as cell-based. Conditions: read-out: EC50 (±SE). The procedure:
as §1, §2

In series [4] the test system is NHDFs. Kind of series: Genotoxicity, micronucleus (MN) assay, NHDF. The class given is cell-based, human. Conditions: 48 h, 5 µM. How it is done: (§3) Both cell types were seeded in 6-well plates (2.5 × 10^4 cells/well) and incubated for 24 h at 37 °C in 5% CO2. After incubation, the medium in the wells was changed to 5 µM solutions of genistein, 4′-L-Gen, W-Bn-Gen, or W5-Gen in DMEM and incubated for 1 h at 37 °C in 5% CO2. Half of the treated cells were irradiated, as described above. Afterwards, all the cells were treated with […] cytochalasin B and incubated for 48 h at 37 °C in 5% CO2. Subsequently, cells from each well were trypsinized, washed twice in PBS, and mixed with frosted (−20 °C) Carnoy’s solution (methanol: acetic acid, v/v 3:1). After 2 h, 50 µL of each suspension was placed on a microscopic slide and dried. Before microscopic analysis, slides were stained with 2 µg/mL DAPI (dissolved in DMSO) and covered with cover glasses. Slides were observed using a fluorescent microscope (Zeiss Axio Imager. M1 with EC Plan- NEOFLUAR 40× objective, Zeiss, Oberkochen, Germany). A total of 500 cells on each slide were counted, taking into account binucleated, binucleated with MN, mononucleated, and apoptotic cells. The NDI was calculated using a modified method by Eastmond and Tucker (1989) according to the following Equation (2):(2) NDI=MNu+2(Bnu+BNuMN)/∑cells where MNu is the number of cells with one nucleus, BNu is the number of binucleated cells, and BNuMN is the number of binucleated cells with MN.

The test system of series [5] is NHDFs. Kind of series: Cell cycle analysis (flow cytometry, PI), NHDF. The class given is cell-based, human. As to conditions: 5 µM, 48 h, not exposed to UV. How it is done: (§4) Cells from both cell lines were seeded in 12-well plates (2.5 × 10^4 cells/well) and incubated for 24 h at 37 °C in 5% CO2. The medium in the wells was replaced with fresh DMEM. Cells were treated with 5 µM of genistein, 4′-L-Gen, W5-Gen, or WBn-Gen for 48 h. Medium containing the test substances was removed, and the cells were collected by trypsinization (followed by neutralization of trypsin with medium) in Eppendorf tubes. Tubes were centrifuged (2000 rpm, 3 min), and the supernatant was removed. Subsequently, the fixation of cells in frozen 96% ethanol took place. The ethanol was removed, and cells were washed twice in PBS. Cells were suspended in tubes using 50 µL of […] RNase and then incubated for 15 min at room temperature. Cells were stained with […] propidium iodide solution in PBS and incubated for 20 min at room temperature. Directly before flow cytometry analysis, cells were agitated on a vortex mixer. Cell cycle analysis was performed using a BD FACS Canto flow cytometer, which counted 10,000 cells from every probe. The number of cells in each cell cycle phase was counted by measuring the […] intensity using Diva software (Bd FACSDiva v9.0, Becton Dickinson, Franklin Lakes, NJ, USA).
For orientation: A flow cytometer gives signals particle by particle.

The subject of series [6] is estrogen receptors ERα and ERβ. Conditions: cited from earlier work.
Series [7] deals with Me45 cells. Kind of series: Genotoxicity, micronucleus (MN) assay, Me45. The series is classed as cell-based, human. Conditions: 5 µM, 48 h, exposed and not exposed to UV radiation. How it is done:
as §3

Series [8] can be described thus: Protective potential against UV irradiation, MTS assay, Me45. The series is classed as cell-based. Conditions: human. The procedure: Cells from each cell line were seeded in three groups (0, 24, and 48 h) in 96-well plates (5 × 10^3 cells/well) and incubated for 24 h at 37 °C in 5% CO2. Afterwards, the medium in all wells was removed, and cells were treated with 5 µM of genistein, 4′-L-Gen, W-Bn-Gen, or W5-Gen. The chemicals added to the 0 h time point plates were dissolved in PBS. DMEM was used to prepare the chemical solutions for the 24- and 48-h plates.
After incubation, half of the wells on each plate were irradiated with UVC 2 kJ/m^2 in a Crosslinker CL-1000 UV (UVP) device (Ultra-Violet Products Ltd., Cambridge, UK). The MTS assay was performed immediately after irradiation for 0 h plates and after 24 and 48 h of incubation for the other two time points. Before conducting the MTS test, the medium in the 24 and 48 h plates was discarded and replaced with PBS.

The test system of series [9] is Me45 cells. Kind of series: Cell cycle analysis (flow cytometry, PI), Me45. The series is classed as cell-based, human. As to conditions: 5 µM, 48 h, not exposed to UV. How it is done:
as §4

Setting [10] is: Me45, 48 h treatment, 1–100 µM, concentration causing 50% toxicity.
Where [11] appears, read: 48 h treatment, 1–100 µM, concentration causing 50% toxicity.

With `CCCCCOC(=O)Oc1cc(O)c2c(=O)c(-c3ccc(O)cc3)coc2c1` [Compound W5-Gen, n-pentyl-7-O-genistein carbonate], the EC50 in series [1] (setting [10]) came out at 92.2 µM; in series [3] (setting [11]) it was 5.6 µM. In [2], this compound had a logP of 3.96.

Turning to `O=C(OCc1ccccc1)Oc1cc(O)c2c(=O)c(-c3ccc(O)cc3)coc2c1` [WBn-Gen, bezyl-7-O-genistein carbonate], the EC50 was 71.2 µM in series [1] (setting [10]) and 6 µM in [3] (setting [11]). In series [2], this compound showed a logP of 4.04. For the same compound, the “DNA damage (percentage of binucleated cells with MN)” value in series [4] (human) was 10.5–11%. Moreover, the “suppression of the cell cycle in the G2/M phase, cells compared to the controls” value in series [5] is 6%.

Regarding `O=c1c(-c2ccc(O)cc2)coc2cc(O)cc(O)c12` [Gen, Genistein], the EC50 in series [1] (48 h) came to 78.2 µM; in series [3] (48 h), 8.6 µM. For the same compound, the “binding to ERβ versus ERα, times more strongly” value in series [6] is recorded as 20–30 times. For the same compound, in [2] (method not stated, read-out: Log P), the logP was 1.74. Besides, the “effect on number of cells with MN (in words)” value in series [7] is on record as “increases the number of cells with MN”; in [4] (NHDF), “decreased the number of cells with MN”. Also, the mortality at 0 h, 5 µM in [8] (Me45, 5 µM, shortest incubation (first time point, before the 24 h reading), read-out: mortality compared to control untreated cells) worked out at 50%. The “suppression of the G1 phase, ranking (in words)” value in [9] is given as “strongest effect”.

In the case of `CCCCCCCCCCCC(=O)Oc1ccc(-c2coc3cc(O)cc(O)c3c2=O)cc1` [4′-L-Gen, 4′-genistein dodecanate], the EC50 came out at 60.5 µM in [1] (48 h) and 6.5 µM in [3] (48 h). The same compound returned a logP in series [2] of 5.71. In series [8], this compound came in with a mortality at 0 h, 5 µM of around 10%. Moreover, the viability at 48 h, 5 µM in series [8] (Me45, 5 µM, after 48 h, both exposed and not exposed to UV radiation, read-out: viability of treated cells much lower than in the control samples) is around 50%. The “suppression of the G1 phase, ranking (in words)” value in [9] is “weakest effect”.

By EC50 is commonly meant the concentration at which the effect is half-maximal. As a reminder, the mortality is the percentage killed. The term viability denotes the share of living cells, or the viability signal relative to a control.
